In US20110064680A1, “NATURALLY DERIVED WATERPROOFING AGENTS FOR AQUEOUS-BASED PERSONAL CARE PRODUCTS” (Pinova, Inc., priority 2009, published 2011):

Assay: Solubility of solid sunscreen actives in the hydrogenated wood resins
Assay type: physicochemical
Details: solvent: hydrogenated wood resins
Text: During the making of the sunscreens, it was observed that the systems containing the hydrogenated wood resins more easily solubilzed the solid sunscreens (Oxybenzone and Avobenzone). […]

solubility of these actives in the hydrogenated wood resins	Structure (SMILES)
13%	COc1ccc(C(=O)CC(=O)c2ccc(C(C)(C)C)cc2)cc1 [Avobenzone]
24%	COc1ccc(C(=O)c2ccccc2)c(O)c1 [Oxybenzone]
